Assay results published in US20240000767A1, “COMBINATION OF AN ALPHA2-ADRENOCEPTOR SUBTYPE C (ALPHA-2C) ANTAGONIST WITH A TASK1/3 CHANNEL BLOCKER FOR THE TREATMENT OF SLEEP APNEA” (Bayer Aktiengesellschaft, priority 2020, published 2024).

Biological target: human ADRA2C receptor (Homo sapiens (Human), UniProt P18825)
Experiment: In vitro activity assay to determine the inhibition of recombinant ADRA2C (CHO-K1 cells, aequorin bioluminescence)
Type: cell-based
Conditions: inhibition of noradrenaline-induced bioluminescence signal; some mean values from multiple determinations; read-out: ARα2C IC50
Description: B-2. In Vitro Activity Assay to Determine the Inhibition of Recombinant ADRA2C
The human ADRA2C receptor belongs to the G protein(guanine-dependent protein)-coupled receptors, the main function of which is the transduction of signals into the interior of the cell.
The investigations of the inhibition of the recombinant human ADRA2C receptors were carried out with stabily transfected CHO-K1 cells coexpressing the Gaq protein and the calcium-sensitive photoprotein aequorin. In this recombinant system, binding of the agonists noradrenaline to the ADRA2C receptor leads, after activation of a signal cascade, to calcium release from intracellular stores, which is detected by the intracellular calcium sensor aequorin as a bioluminescent signal. The method is described in detail in the reference below. [Wunder F., Kalthof B., Muller T., Hueser J. Functional Cell-Based Assays in Microliter Volumes for Ultra-High Throughput Screening. Combinatorial Chemistry & High Throughput Screening, Volume 11, Number 7, 2008, pp. 495-504(10). doi.org/10.2174/138620708785204054]
The activity of the test substances was determined via their ability to inhibit the agonist-induced increase of the bioluminescence signal. The concentration which can block half of this signal increase is referred to as IC50. The IC50 value is calculated using the 4 parameter logistic function (Hill function):
Top=upper threshold, Bottom=lower threshold, Slope=slope, IC50=turning point

human ADRA2C receptor, sequence (P18825 whole entry): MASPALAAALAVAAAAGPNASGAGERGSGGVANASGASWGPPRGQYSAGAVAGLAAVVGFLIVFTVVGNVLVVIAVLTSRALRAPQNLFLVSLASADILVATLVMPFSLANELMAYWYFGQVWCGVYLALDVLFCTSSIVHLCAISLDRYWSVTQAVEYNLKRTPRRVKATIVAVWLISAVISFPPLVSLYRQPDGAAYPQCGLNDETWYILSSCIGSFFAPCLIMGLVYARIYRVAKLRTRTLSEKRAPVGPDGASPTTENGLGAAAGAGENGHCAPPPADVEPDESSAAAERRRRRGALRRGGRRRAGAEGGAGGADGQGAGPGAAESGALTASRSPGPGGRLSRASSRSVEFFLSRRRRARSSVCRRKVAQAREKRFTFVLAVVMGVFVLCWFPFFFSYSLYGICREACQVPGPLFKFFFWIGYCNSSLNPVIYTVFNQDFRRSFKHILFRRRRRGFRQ

## O=C(NCc1ncc(F)cc1F)c1cnc(N2CCC(N3CCCC(CF)C3)CC2)s1 (racemic) [Example 6, N-[(3,5-difluoropyridin-2-yl)methyl]-2-[3-(fluoromethyl)[1,4′-bipiperidin]-1′-yl]-1,3-thiazole-5-carboxamide (racemate)]
  IC50: 0.335 µM

## CC(NC(=O)c1cnc(N2CCC(N3CCC[C@@H](C)C3)C(F)C2)s1)c1cc(F)ccc1F (mixture of isomers) [Example 117, diamix-N-[1-(2,5-Difluorophenyl)ethyl]-2-[(3R)-3′-fluoro-3-methyl[1,4′-bipiperidin]-1′-yl]-1,3-thiazole-5-carboxamide]
  IC50: 0.00065 µM

## CO[C@@H]1CCCN(C2CCN(c3ncc(C(=O)NCc4ncc(F)cc4F)s3)CC2)C1 [Example 15, N-[(3,5-difluoropyridin-2-yl)methyl]-2-[(3R)-3-methoxy[1,4′-bipiperidin]-1′-yl]-1,3-thiazole-5-carboxamide]
  IC50: 1.85 µM

## Cc1sc(N2CCC(N3CCC[C@@H](C)C3)CC2)nc1C(=O)NCc1ncc(F)cc1F [Example 9, N-[(3,5-difluoropyridin-2-yl)methyl]-5-methyl-2-[(3R)-3-methyl[1,4′-bipiperidin]-1′-yl]-1,3-thiazole-4-carboxamide]
  IC50: 0.17 µM

## Cc1cc(C)c(CNC(=O)c2cnc(N3CCC(N4CCC[C@@H](C)C4)CC3)s2)cn1 [Example 78, N-[(4,6-Dimethylpyridin-3-yl)methyl]-2-[(3R)-3-methyl[1,4′-bipiperidin]-1′-yl]-1,3-thiazole-5-carboxamide]
  IC50: 0.755 µM

## C[C@@H]1CCCN(C2CCN(c3ncc(C(=O)Nc4cc(Cl)ccc4O)s3)CC2)C1 [Example 96]
  IC50: 1 µM

## C[C@@H]1CCCN(C2CCN(c3nc(-c4ccccc4Cl)c(C(=O)NCc4ncc(F)cc4F)s3)CC2)C1 [Example 118, 4-(2-Chlorophenyl)-N-[(3,5-difluoropyridin-2-yl)methyl]-2-[(3R)-3-methyl[1,4′-bipiperidin]-1′-yl]-1,3-thiazole-5-carboxamide]
  IC50: 0.0077 µM

## C[C@@H]1CCCN(C2CCN(c3ncc(C(=O)NCc4ccncc4)s3)CC2)C1 [Example 58, 2-[(3R)-3-Methyl[1,4′-bipiperidin]-1′-yl]-N-(pyridin-4-ylmethyl)-1,3-thiazole-5-carboxamide]
  IC50: 0.87 µM

## O=C(NCc1ncc(F)cc1F)c1cnc(N2CCC(N3CCC[C@@H](C(F)(F)F)C3)CC2)s1 [Example 43, N-[(3,5-Difluoropyridin-2-yl)methyl]-2-[(3R)-3-(trifluoromethyl)[1,4′-bipiperidin]-1′-yl]-1,3-thiazole-5-carboxamide]
  IC50: 0.026 µM

## Cc1ccc(CNC(=O)c2cnc(N3CCC(N4CCC[C@@H](C)C4)CC3)s2)cn1 [Example 72, 2-[(3R)-3-methyl[1,4′-bipiperidin]-1′-yl]-N-[(6-methylpyridin-3-yl)methyl]-1,3-thiazole-5-carboxamide]
  IC50: 0.18 µM

## O=C(NCc1ncc(F)cc1F)c1cnc(N2CCC(N3CCC[C@@H](OCC4CC4)C3)CC2)s1 [Example 114, 2-[(3R)-3-(Cyclopropylmethoxy)[1,4′-bipiperidin]-1′-yl]-N-[(3,5-difluoropyridin-2-yl)methyl]-1,3-thiazole-5-carboxamide]
  IC50: 0.0013 µM

## C[C@@H]1CCCN(C2CCN(c3nc(C(=O)NCc4ncc(F)cc4F)cs3)CC2F)C1 (mixture of isomers) [Example 111, diamix-N-[(3,5-Difluoropyridin-2-yl)methyl]-2-[(3R)-3′-fluoro-3-methyl[1,4′-bipiperidin]-1′-yl]-1,3-thiazole-4-carboxamide]
  IC50: 0.00049 µM

## O=C(NCc1ncc(F)cc1F)c1cnc(N2CCC(N3CCc4ccccc4C3)CC2)s1 [Example 2, N-[(3,5-Difluoropyridin-2-yl)methyl]-2-[4-(3,4-dihydroisoquinolin-2(1H)-yl)piperidin-1-yl]-1,3-thiazole-5-carboxamide]
  IC50: 0.0052 µM

## C[C@@H]1CCCN(C2CCN(c3ncc(C(=O)N(C)Cc4ncccc4F)s3)CC2)C1 [Example 27, N-[(3-fluoropyridin-2-yl)methyl]-N-methyl-2-[(3R)-3-methyl[1,4′-bipiperidin]-1′-yl]-1,3-thiazole-5-carboxamide]
  IC50: 0.31 µM
